Results published in US7205003B2, “Method and topical formulation for treating skin conditions associated with aging” (Dermatrends, Inc., priority 2001, dated 2007).
Where two headings read alike, the source gives them in different places.

Columns and labels:
[1] = cited from earlier work
[2] = in vitro keratolysis study: protein released from ground adult foot callus, BioRad protein assay
Method: An in vitro keratolysis study was performed to compare the capability of glycolic acid and a base for removing protein from stratum corneum. Adult foot callus was collected, grounded and the portion between 50–80 mesh was used. Glycolic acid and sodium hydroxide solutions (concentration =0.05 M) were prepared in distilled water. Ten mg of ground callus powder was place in a test tube. Four ml of a test chemical was added to the callus and the test tube was placed in a shaker and incubated in a water bath at 37° C. for a predetermined incubation time. The incubation time periods were 10 min., 40 min, 2 hours, 4 hours, 6 hours and 24 hours. Six samples of each base were tested a total of six times each at each of the aforementioned incubation time periods.
At the end of each incubation period, the test tube was removed from the shaker and the test tube was centrifuged. The solution was removed and filtered, and the protein in the solution was then determined using a BioRad® protein assay kit.

[3] = cited from earlier work; remark: listed apart in the source
[4] = Example 1, 0.05 M, all time points, versus glycolic acid / water control
[5] = Example 2, 0.05 M, 10 minutes, versus glycolic acid, other bases, water control

N [Ammonium hydroxide]
pH of Aqueous Solution ([1]; 0.001 N): 10.27 | pH of Aqueous Solution ([1]; 1 N): 11.27

N.N.O=P(O)(O)O [Ammonium phosphate, dibasic]
pH of Aqueous Solution ([1]; concentration not given): ~8

O=P([O-])([O-])O.[Na+].[Na+] [Sodium phosphate, dibasic]
pH of Aqueous Solution ([1]; concentration not given): ~9.5

O=C(O)CO [Glycolic Acid, reference compound]
protein released, comparison in words [2, 4]: did not show statistical differences in comparison with water | protein released, comparison in words [2, 5]: did not show significant differences in comparison with water

O=P([O-])([O-])O.[Na+].[Na+] [Sodium phosphate, dibasic, anhydrous]
pH of Aqueous Solution ([1]; 1.0% (1%)): 9.1 (1%)

CC(C)(N)CO [2-amino-2-methyl-1-propanol]
pH of Aqueous Solution ([1]; 0.1 m): 11.3 (0.1 m)

O.O.O=P([O-])([O-])O.[Na+].[Na+] [Sodium phosphate, dibasic, dihydrate]
pH of Aqueous Solution ([1]; concentration not given): ~9.5

O.O.O.O.O.O.O.O=P([O-])([O-])O.[Na+].[Na+] [Sodium phosphate, dibasic, heptahydrate]
pH of Aqueous Solution ([1]; concentration not given): ~9.5

O.O.O.O.O.O.O.O.O.O.O.O.O=P([O-])([O-])[O-].[Na+].[Na+].[Na+] [Sodium phosphate, tribasic dodecahydrate]
pH of Aqueous Solution ([1]; 0.1%): 11.5 | pH of Aqueous Solution ([1]; 0.5%): 11.7 | pH of Aqueous Solution ([1]; 1.0% (1%)): 11.9

O=C([O-])CC(O)(CC(=O)[O-])C(=O)[O-].[K+].[K+].[K+] [Potassium citrate]
pH of Aqueous Solution ([1]; concentration not given): ~8.5

O=C([O-])[O-].[Na+].[Na+] [Sodium carbonate anhydrous]
pH of Aqueous Solution ([1]; concentration not given): ~11.6

O.O.O.O.O.O.O.O.O.O.O.O.O=P([O-])([O-])O.[Na+].[Na+] [Sodium phosphate, dibasic, dodecahydrate]
pH of Aqueous Solution ([1]; concentration not given): ~9.5

[Na+].[OH-] [NaOH, Sodium hydroxide]
amounts of protein released at 6 hours and 24 hours versus 10 minutes, 40 minutes, 2 hours and 4 hours ([2]; Example 1, 0.05 M): significantly higher | protein released, comparison in words [2, 4]: released more protein | protein released, comparison in words [2, 5]: released more protein | pH of Aqueous Solution ([1]; 0.05%): 12 | pH of Aqueous Solution ([1]; 0.5%): 13 | pH of Aqueous Solution ([1]; 5%): 14

CC(N)(CO)CO [2-amino-2-methyl-1,3-propanediol]
pH of Aqueous Solution ([1]; 0.1 m): 10.8 (0.1 m)

[O]=[Ca] [Calcium oxide]
solubility in water, in words [3]: Soluble in water, Form Ca(OH)2

CC(=O)[O-].[Na+] [Sodium acetate, anhydrous]
pH of Aqueous Solution ([1]; 0.1 N): ~8.9 (0.1 N)

OCCNCCO [Diethanolamine]
pH of Aqueous Solution ([1]; 0.1 N): 11.0 (0.1 N)

[O]=[Mg] [Magnesium oxide]
pH of Aqueous Solution ([1]; saturated solution in water): 10.3 (saturated aqueous solution)
